Assay [1] deals with T1, Dual specificity tyrosine-phosphorylation-regulated kinase 3 (Homo sapiens) (UniProt O43781).
T1 sequence (whole entry): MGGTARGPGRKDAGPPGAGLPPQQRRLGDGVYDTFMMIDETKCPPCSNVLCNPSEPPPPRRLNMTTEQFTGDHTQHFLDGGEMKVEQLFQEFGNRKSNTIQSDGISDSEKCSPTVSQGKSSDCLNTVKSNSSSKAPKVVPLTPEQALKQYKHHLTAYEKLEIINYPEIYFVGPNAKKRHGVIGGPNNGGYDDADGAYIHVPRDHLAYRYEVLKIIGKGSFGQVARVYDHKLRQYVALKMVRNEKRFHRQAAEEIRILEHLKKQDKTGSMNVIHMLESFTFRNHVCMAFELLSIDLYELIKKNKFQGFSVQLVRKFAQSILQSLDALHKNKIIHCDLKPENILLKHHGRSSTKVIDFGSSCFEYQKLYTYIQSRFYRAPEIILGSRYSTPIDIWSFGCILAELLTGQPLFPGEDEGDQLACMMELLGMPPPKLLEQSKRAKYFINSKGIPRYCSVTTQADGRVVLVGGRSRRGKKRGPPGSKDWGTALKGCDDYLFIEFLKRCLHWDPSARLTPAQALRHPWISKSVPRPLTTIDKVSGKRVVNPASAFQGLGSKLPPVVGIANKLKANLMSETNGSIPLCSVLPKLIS
The assay is described as follows: Selectivity interaction (Kinase panel (Z-LYTE Assay)) EUB0001632a DYRK3. The following applies: at 10 µM.

Assay [2] has as its target Receptor-type tyrosine-protein kinase FLT3 (Homo sapiens) (UniProt P36888). The assay is described as follows: Selectivity interaction (KinomeScan (DiscoverX)) EUB0000607a FLT3. The following applies: at 10 µM.
Assay [3] has as its target T2, Lymphokine-activated killer T-cell-originated protein kinase (Homo sapiens) (UniProt Q96KB5).
T2 sequence (whole entry): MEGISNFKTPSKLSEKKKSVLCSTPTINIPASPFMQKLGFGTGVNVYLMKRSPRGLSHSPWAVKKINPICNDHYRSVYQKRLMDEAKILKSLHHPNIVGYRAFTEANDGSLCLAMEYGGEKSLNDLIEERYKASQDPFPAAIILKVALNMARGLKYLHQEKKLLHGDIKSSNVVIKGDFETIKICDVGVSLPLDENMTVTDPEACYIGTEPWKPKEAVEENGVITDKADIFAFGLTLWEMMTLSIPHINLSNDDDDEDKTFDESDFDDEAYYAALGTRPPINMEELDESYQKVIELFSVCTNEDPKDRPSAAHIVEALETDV
The assay is described as follows: Selectivity interaction (Kinase panel (DSF assay)) EUB0001558a PBK. For orientation: Differential scanning fluorimetry follows unfolding on heating by fluorescence.

The target of assay [4] is Mitogen-activated protein kinase kinase kinase kinase 1 (Homo sapiens) (UniProt Q92918). As to the kind of experiment: Selectivity interaction (KinomeScan (DiscoverX)) EUB0000229b MAP4K1. The following applies: at 10 µM.
The target in assay [5] is Calcium/calmodulin-dependent protein kinase kinase 1 (Homo sapiens) (UniProt Q8N5S9). The assay is described as follows: Selectivity interaction (KinomeScan (DiscoverX)) EUB0000655a CAMKK1. As to conditions: at 10 µM.
Assay [6] has as its target Receptor-interacting serine/threonine-protein kinase 3 (Homo sapiens) (UniProt Q9Y572). As to the kind of experiment: Selectivity interaction (ActivX KiNativ screen (ex vivo kinase selectivity in human PBMCs)) EUB0001619a RIPK3. Format: cell-based. As to conditions: PBMC, at 1 µM.
Assay [7] deals with T3, Inhibitor of nuclear factor kappa-B kinase subunit beta (Homo sapiens) (UniProt O14920).
T3 sequence (whole entry): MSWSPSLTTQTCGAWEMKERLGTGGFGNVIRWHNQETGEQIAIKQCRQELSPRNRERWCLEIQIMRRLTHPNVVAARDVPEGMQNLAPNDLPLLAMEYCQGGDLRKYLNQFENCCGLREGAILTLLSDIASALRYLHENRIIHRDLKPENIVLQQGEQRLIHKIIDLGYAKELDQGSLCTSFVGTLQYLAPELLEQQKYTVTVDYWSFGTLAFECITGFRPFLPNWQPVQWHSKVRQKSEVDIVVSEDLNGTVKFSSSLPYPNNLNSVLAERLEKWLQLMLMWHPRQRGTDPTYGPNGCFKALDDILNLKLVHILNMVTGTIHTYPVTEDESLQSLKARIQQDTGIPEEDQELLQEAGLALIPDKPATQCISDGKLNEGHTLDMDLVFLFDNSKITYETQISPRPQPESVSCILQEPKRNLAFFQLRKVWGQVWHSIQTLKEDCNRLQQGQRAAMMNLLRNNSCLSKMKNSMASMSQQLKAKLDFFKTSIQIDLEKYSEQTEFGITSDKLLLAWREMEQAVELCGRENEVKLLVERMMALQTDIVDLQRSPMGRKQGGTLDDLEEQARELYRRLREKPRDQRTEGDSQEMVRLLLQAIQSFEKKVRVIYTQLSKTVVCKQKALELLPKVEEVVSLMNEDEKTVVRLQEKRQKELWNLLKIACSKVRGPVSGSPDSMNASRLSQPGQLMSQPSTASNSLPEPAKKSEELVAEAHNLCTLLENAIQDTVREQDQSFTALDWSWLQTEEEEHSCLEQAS
The assay is described as follows: Selectivity interaction (ProQinase) EUB0000171b IKBKB.

In assay [8] the target is Bromodomain-containing protein 3 (Homo sapiens) (UniProt Q15059). As to the kind of experiment: Selectivity interaction (Human bromodomain panel (DSF assay)) EUB0000233b BRD3.
The target in assay [9] is Serine/threonine-protein kinase MRCK alpha (Homo sapiens) (UniProt Q5VT25). As to the kind of experiment: Selectivity interaction (Ambit KINOMEscan) EUB0000092b CDC42BPA. The following applies: at 10 µM.
For assay [10], the target named is Ribosomal protein S6 kinase alpha-5 (Homo sapiens) (UniProt O75582). As to the kind of experiment: Selectivity interaction (KinomeScan (DiscoverX)) EUB0000045b RPS6KA5. As to conditions: at 1 µM.
The target of assay [11] is T4, Dual specificity mitogen-activated protein kinase kinase 3 (Homo sapiens) (UniProt P46734).
T4 sequence (whole entry): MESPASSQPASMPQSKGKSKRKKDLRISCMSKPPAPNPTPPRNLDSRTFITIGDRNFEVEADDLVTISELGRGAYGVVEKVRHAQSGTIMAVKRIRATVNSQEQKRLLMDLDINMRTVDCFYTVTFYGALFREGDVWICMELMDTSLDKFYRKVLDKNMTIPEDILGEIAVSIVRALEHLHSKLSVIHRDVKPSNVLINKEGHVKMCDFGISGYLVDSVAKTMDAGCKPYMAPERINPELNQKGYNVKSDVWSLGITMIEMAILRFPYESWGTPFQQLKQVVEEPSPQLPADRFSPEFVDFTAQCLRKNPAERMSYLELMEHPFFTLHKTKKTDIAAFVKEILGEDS
The assay is described as follows: Selectivity interaction (KinomeScan (DiscoverX)) EUB0000595a MAP2K3. As to conditions: at 10 µM.

Where only a bound is given, the exact number is not on record here.

Chain of Receptor-type tyrosine-protein kinase FLT3 (Homo sapiens) (P36888 whole entry): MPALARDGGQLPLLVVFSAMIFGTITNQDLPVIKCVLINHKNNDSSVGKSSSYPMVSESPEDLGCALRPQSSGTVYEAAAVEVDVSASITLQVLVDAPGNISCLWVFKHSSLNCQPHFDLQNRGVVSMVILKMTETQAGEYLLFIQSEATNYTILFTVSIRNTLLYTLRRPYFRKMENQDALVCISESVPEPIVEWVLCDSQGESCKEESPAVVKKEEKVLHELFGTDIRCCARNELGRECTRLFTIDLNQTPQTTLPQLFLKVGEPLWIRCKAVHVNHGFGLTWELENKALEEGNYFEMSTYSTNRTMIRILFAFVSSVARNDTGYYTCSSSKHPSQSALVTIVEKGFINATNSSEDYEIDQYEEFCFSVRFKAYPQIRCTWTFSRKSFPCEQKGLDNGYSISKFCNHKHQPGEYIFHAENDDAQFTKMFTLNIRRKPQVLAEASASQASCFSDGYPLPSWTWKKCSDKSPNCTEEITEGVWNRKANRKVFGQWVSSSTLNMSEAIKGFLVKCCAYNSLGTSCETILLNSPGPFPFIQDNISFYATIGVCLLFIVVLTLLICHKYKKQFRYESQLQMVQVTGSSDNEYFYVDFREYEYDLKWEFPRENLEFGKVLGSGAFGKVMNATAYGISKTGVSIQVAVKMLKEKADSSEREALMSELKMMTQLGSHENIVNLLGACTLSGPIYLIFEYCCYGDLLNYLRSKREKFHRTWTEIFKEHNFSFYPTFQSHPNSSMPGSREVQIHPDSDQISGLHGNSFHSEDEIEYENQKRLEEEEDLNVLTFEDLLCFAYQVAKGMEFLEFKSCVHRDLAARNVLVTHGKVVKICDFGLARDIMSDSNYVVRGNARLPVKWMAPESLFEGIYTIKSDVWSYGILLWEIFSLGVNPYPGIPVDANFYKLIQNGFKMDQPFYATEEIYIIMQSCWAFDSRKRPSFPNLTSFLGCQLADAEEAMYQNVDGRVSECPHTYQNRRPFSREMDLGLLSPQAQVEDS
Chain of Serine/threonine-protein kinase MRCK alpha (Homo sapiens) (Q5VT25 whole entry): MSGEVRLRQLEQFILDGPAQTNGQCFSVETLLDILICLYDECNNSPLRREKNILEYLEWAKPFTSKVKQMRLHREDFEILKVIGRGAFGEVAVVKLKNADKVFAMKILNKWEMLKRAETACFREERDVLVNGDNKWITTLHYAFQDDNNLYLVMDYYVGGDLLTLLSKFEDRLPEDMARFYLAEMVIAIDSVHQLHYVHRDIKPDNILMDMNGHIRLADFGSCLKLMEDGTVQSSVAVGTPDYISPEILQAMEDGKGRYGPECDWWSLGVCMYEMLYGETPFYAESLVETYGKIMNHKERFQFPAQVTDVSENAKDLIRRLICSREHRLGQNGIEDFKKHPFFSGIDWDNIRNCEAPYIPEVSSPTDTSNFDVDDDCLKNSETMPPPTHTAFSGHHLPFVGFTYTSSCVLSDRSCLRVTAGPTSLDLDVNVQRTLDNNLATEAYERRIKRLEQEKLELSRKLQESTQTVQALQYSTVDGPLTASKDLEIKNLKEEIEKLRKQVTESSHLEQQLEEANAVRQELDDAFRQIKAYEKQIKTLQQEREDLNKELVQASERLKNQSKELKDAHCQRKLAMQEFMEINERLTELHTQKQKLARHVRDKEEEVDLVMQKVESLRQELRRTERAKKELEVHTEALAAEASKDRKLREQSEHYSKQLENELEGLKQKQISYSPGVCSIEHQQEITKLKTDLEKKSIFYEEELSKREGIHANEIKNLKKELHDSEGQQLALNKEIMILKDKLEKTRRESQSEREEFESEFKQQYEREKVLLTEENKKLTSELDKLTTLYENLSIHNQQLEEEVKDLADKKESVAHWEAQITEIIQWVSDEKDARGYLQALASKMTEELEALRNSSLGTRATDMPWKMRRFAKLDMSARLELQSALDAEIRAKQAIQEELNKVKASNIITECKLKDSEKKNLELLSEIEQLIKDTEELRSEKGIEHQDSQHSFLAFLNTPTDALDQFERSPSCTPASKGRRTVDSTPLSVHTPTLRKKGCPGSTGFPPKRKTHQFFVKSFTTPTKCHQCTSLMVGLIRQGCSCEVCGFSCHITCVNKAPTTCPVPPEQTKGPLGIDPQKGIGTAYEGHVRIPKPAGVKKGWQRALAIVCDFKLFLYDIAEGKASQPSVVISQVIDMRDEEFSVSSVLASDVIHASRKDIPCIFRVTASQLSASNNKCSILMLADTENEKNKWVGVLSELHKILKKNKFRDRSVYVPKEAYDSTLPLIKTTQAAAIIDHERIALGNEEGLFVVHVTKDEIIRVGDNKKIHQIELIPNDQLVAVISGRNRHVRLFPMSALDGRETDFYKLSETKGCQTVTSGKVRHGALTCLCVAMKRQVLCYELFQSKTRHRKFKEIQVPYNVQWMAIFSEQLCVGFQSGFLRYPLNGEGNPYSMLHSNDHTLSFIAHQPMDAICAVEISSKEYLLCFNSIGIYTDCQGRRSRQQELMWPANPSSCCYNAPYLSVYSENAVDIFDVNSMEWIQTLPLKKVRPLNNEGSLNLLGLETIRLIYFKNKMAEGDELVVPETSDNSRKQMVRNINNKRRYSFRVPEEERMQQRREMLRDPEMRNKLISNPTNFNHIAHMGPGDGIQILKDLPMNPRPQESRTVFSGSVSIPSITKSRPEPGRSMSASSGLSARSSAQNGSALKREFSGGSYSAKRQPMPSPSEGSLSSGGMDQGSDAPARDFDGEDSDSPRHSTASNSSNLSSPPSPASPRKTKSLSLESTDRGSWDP
Chain of Mitogen-activated protein kinase kinase kinase kinase 1 (Homo sapiens) (Q92918 whole entry, looked up): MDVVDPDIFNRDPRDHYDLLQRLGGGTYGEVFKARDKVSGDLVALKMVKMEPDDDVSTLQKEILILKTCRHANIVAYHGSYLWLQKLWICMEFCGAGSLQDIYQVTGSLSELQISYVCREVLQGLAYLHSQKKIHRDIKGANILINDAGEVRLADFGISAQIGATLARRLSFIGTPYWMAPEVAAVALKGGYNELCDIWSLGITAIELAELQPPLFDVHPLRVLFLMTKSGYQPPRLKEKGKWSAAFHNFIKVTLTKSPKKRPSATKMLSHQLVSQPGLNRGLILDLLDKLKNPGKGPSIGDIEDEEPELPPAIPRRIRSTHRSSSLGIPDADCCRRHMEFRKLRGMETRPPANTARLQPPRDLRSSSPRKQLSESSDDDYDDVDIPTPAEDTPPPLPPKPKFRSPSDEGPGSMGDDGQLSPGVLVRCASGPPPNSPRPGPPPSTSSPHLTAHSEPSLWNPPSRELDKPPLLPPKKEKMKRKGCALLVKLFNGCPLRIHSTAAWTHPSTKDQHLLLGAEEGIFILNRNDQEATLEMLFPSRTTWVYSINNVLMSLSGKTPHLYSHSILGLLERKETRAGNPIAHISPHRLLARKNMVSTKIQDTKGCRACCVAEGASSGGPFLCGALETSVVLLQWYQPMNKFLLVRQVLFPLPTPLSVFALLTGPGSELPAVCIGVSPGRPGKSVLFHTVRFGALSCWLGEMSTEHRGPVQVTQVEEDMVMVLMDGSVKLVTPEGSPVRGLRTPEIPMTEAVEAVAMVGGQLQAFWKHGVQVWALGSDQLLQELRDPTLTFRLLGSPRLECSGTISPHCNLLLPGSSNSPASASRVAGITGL
Chain of Calcium/calmodulin-dependent protein kinase kinase 1 (Homo sapiens) (Q8N5S9 whole entry, looked up): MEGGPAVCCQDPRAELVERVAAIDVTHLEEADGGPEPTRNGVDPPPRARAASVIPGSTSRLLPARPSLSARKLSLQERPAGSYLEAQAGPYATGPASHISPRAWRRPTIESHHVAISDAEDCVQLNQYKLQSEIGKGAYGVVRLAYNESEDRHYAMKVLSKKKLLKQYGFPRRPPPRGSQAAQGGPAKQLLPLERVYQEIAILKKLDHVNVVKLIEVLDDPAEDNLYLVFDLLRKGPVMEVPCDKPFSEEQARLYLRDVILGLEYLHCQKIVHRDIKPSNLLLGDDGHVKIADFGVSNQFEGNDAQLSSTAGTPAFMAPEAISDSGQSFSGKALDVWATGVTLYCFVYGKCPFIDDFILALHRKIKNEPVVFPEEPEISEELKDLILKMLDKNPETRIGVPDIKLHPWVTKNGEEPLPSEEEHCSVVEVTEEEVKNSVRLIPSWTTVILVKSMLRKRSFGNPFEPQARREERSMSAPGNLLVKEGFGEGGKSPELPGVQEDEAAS
Chain of Receptor-interacting serine/threonine-protein kinase 3 (Homo sapiens) (Q9Y572 whole entry, looked up): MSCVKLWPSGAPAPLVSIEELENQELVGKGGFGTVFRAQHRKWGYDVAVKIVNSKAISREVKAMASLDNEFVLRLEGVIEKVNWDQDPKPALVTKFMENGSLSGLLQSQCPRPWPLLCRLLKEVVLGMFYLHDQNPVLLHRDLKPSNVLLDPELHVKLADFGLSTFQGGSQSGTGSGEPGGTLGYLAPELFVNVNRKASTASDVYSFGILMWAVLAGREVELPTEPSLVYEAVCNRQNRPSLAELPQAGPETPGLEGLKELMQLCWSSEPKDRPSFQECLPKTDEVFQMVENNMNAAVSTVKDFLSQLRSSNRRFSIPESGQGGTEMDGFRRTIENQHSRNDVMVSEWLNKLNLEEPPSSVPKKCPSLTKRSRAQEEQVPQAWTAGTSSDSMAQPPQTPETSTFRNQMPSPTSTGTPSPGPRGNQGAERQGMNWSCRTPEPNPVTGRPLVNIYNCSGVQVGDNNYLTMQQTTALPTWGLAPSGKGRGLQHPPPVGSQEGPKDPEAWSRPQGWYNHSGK

The molecule `Cn1cc(-n2cnc3c(NCc4nc5cc(Cl)c(Cl)cc5[nH]4)nc(N4CCOCC4)nc32)cn1` registered a % of control in assay [1] of 10.6%. In assay [2], `CNC(=O)Nc1ccc(-c2nc(N3CC4CCC(C3)O4)c3cnn(C4CCC5(CC4)OCCO5)c3n2)cc1` had a % of control of 77%.

With `CC(C)(O)[C@H](F)CN1Cc2cc(NC(=O)c3cnn4cccnc34)c(N3CCOCC3)cc2C1=O`, the dTM in [3] is -1.2 K. For `COc1cc(N(C)c2ccnc3ccc(C(F)(F)F)cc23)cc(OC)c1OC`, the % binding in [4] turned out to be 96%. Regarding `CN(C)CCOc1ccc(-c2nc(-c3ccncc3)c(-c3ccc4c(c3)CC/C4=N\O)[nH]2)cc1`, the % of control in [5] is 99%.

For `N#Cc1cccc(-c2c[nH]c3ncnc(N4CCOCC4)c23)c1`, the % of inhibition in assay [6] is 8%. As for `C=CC(=O)Nc1cccc(C(=O)Nc2ccc(Nc3cc(-c4[nH]c(SC)nc4C)ccn3)cc2)c1`, the % of control in assay [7] (at 1 µM) came out at 77%; in [7] (at 5 µM), 63%. As to `CN(C)CCCOc1ccc(-c2cc(NCCCn3cccn3)nc(S(C)(=O)=O)n2)cc1`, the dTM in [8] was below 2 K.

In assay [9], `CCC(=O)N1CCN(c2ccc(-n3c(=O)ccc4cnc5ccc(-c6cnc7ccccc7c6)cc5c43)cc2C(F)(F)F)CC1` registered a % of control of 0.65%. For the molecule `C=CC(=O)Nc1cc(-n2c(=O)ccc3cnc4ccc(-c5ccc(NS(C)(=O)=O)cc5)cc4c32)ccc1C`, the % of control in [10] turned out to be 95%.

In the case of `COCC(=O)NC/C=C/c1ccc2ncnc(Nc3ccc(Oc4ccc(C)nc4)c(C)c3)c2c1` [CP-724714], the % of control in assay [11] was found to be 100%.
